From ChEMBL document CHEMBL1126208, “Synthesis and antileukemic activity of etoposide a-ring analogs” (Bioorg Med Chem Lett, 1992) come the findings set out here.

Experiment [1] in a line: Ratio of IC50 of HCT-VP35 to IC50 of HCT116. The experiment is classed as functional.
The subject of experiment [2] is HCT-116. Nature of the experiment: Compound was tested for its in vitro cytotoxicity in HCT116 cell line after 72 hours. The experiment is classed as functional, cell-based. The following applies: Homo sapiens, HCT-116, 72 h.
The test system of experiment [3] is HCT-116. Nature of the experiment: Compound was tested for its in vitro cytotoxicity in HCT-VP35 cell line after 72 hours. The experiment is classed as functional, cell-based. The conditions noted are these: Homo sapiens, HCT-116, 72 h.
Experiment [4] concerns Mus musculus. In words: Anti-P388 Leukemia activity after 140 mg/kg/injection ip administration on days 5 and 8 expressed as percent of median survival time of drug treated mice compared to saline treated controls. The experiment is classed as functional. The following applies: route intraperitoneal.
The subject of experiment [5] is Mus musculus. Nature of the experiment: Anti-P388 Leukemia activity after 280 mg/kg/injection ip administration on days 5 and 8 expressed as percent of median survival time of drug treated mice compared to saline treated controls. The experiment is classed as functional. The conditions noted are these: route intraperitoneal.
Experiment [6] concerns Mus musculus. In words: Anti-P388 Leukemia activity determined when compound 150 mg/kg was administered ip on day 48 on mice expressed as the Long -term survivors (LTS); mice alive/total; No of mice tested=6. The experiment is classed as functional. The conditions noted are these: route intraperitoneal.
Experiment [7] concerns Mus musculus. Nature of the experiment: Anti-P388 Leukemia activity after 70 mg/kg/injection ip administration on days 5 and 8 expressed as percent of median survival time of drug treated mice compared to saline treated controls. The experiment is classed as functional. The conditions noted are these: route intraperitoneal.
Experiment [8] concerns Mus musculus. In words: Anti-P388 Leukemia activity determined when compound 120 mg/kg was administered ip on day 26 on mice expressed as the Long -term survivors (LTS); mice alive/total No of mice tested=6. The experiment is classed as functional. The following applies: route intraperitoneal.
The subject of experiment [9] is Mus musculus. Nature of the experiment: Anti-P388 Leukemia activity determined when compound 150 mg/kg was administered ip on day 48 on mice expressed as the Long -term survivors (LTS); mice alive/total No of mice tested=6. The experiment is classed as functional. The conditions noted are these: route intraperitoneal.
Experiment [10] concerns Mus musculus. In words: Anti-P388 Leukemia activity determined when compound 120 mg/kg was administered ip on day 53 on mice expressed as the Long -term survivors (LTS); mice alive/total No of mice tested=6. The experiment is classed as functional. The following applies: route intraperitoneal.
Experiment [11] has as its system Mus musculus. Nature of the experiment: Anti-P388 Leukemia activity determined when compound 150 mg/kg was administered ip on day 51 on mice expressed as the Long -term survivors (LTS); mice alive/total. The experiment is classed as functional. The following applies: route intraperitoneal.
Experiment [12] can be described thus: Ratio of IC50 of HCT-VP35 to IC50 of HCT116. The experiment is classed as functional.
The test system of experiment [13] is Mus musculus. Nature of the experiment: Anti-P388 Leukemia activity determined when compound 150 mg/kg was administered ip on day 51 on mice expressed as the Long -term survivors (LTS); mice alive/total; total no of mice =6. The experiment is classed as functional. The following applies: route intraperitoneal.

Structures are written as SMILES. ≈ marks a conversion by molar mass, not a printed value.

The IC50 is the concentration that inhibits the measured activity by half. A high value points to weaker potency. With `COc1cc([C@@H]2c3cc(OC(=O)OCc4ccccc4)c(OC(=O)OCc4ccccc4)cc3[C@@H](O[C@@H]3O[C@@H]4CO[C@@H](C)O[C@H]4[C@H](O)[C@H]3O)[C@H]3COC(=O)[C@H]23)cc(OC)c1O`, the Ratio in experiment [1] came to 2. Also, the IC50 was found to be 5.8 µg/mL (≈ 6.87 µM) in experiment [2] and 11.8 µg/mL (≈ 14 µM) in experiment [3].
Consider `COc1cc([C@@H]2c3cc(O)c(O)cc3[C@@H](O[C@@H]3O[C@@H]4CO[C@@H](C)O[C@H]4[C@H](OC(=O)OCC(Cl)(Cl)Cl)[C@H]3OC(=O)OCC(Cl)(Cl)Cl)[C@H]3COC(=O)[C@H]23)cc(OC)c1OC(=O)OCC(Cl)(Cl)Cl`, for which the values for the T/C in experiment [4], in experiment [5] and in experiment [7] were 100, 105 and 100, respectively. In addition, in experiment [6], the LTS was determined as 5. The Ratio in [1] came out at 0.87. For the same compound, the IC50 in experiment [2] came to 10.2 µg/mL (≈ 9.27 µM); in experiment [3] it was 8.95 µg/mL (≈ 8.12 µM).
For `COc1cc([C@@H]2c3cc4oc(=S)oc4cc3[C@@H](O[C@@H]3O[C@@H]4CO[C@@H](C)O[C@H]4[C@H](O)[C@H]3O)[C@H]3COC(=O)[C@H]23)cc(OC)c1O`, the T/C is recorded as 155 in [4], 170 in experiment [5] and 130 in experiment [7]. Further, in experiment [8], the LTS is given as 6. The IC50 in [2] and in experiment [3] was above 15.6 µg/mL in each case.
For the compound `COc1cc([C@@H]2c3cc4c(cc3[C@@H](O[C@@H]3O[C@@H]5CO[C@@H](C)O[C@H]5[C@H](O)[C@H]3O)[C@H]3COC(=O)[C@H]23)OCO4)cc(OC)c1O` [ETOPOSIDE], in [1], the Ratio was 5.2. For the same compound, the values for the concentration for half-maximal inhibition (IC50) in experiment [2] and in experiment [3] were 0.34 µg/mL (≈ 0.578 µM) and 1.78 µg/mL (≈ 3.02 µM), respectively.
Take `CCCCCCCC(=O)Oc1cc2c(cc1OC(=O)CCCCCCC)[C@@H](O[C@@H]1O[C@@H]3CO[C@@H](C)O[C@H]3[C@H](O)[C@H]1O)[C@H]1COC(=O)[C@@H]1[C@@H]2c1cc(OC)c(O)c(OC)c1`: the T/C in experiment [4] was found to be 125; in [5] it was 135; in experiment [7] it was 120. For the same compound, in experiment [1], the Ratio worked out at 2.7. Also, the half-maximal inhibitory concentration (IC50) in [2] stood at 8.03 µg/mL (≈ 9.69 µM); in experiment [3], 21.7 µg/mL (≈ 26.1 µM). The compound further came in with an LTS in experiment [9] of 5.
`COc1cc([C@@H]2c3cc(O)c(O)cc3[C@@H](O[C@@H]3O[C@@H]4CO[C@@H](C)O[C@H]4[C@H](O)[C@H]3O)[C@H]3COC(=O)[C@H]23)cc(OC)c1O`: the T/C came to 130 in experiment [4], 165 in experiment [5] and 125 in experiment [7]. Further, the IC50 in experiment [2] and in experiment [3] was above 15.6 µg/mL in each case. In experiment [10], the LTS is 2.
As to `COc1cc([C@@H]2c3cc(OC(C)=O)c(OC(C)=O)cc3[C@@H](O[C@@H]3O[C@@H]4CO[C@@H](C)O[C@H]4[C@H](O)[C@H]3O)[C@H]3COC(=O)[C@H]23)cc(OC)c1O`, the LTS in experiment [11] worked out at 4. Besides, the T/C was determined as 167 in experiment [4], 194 in [5] and 144 in [7]. Further, the Ratio in [12] came out at 1.4. The 50% inhibitory concentration (IC50) in [2] was 19.6 µg/mL (≈ 29.6 µM); in experiment [3] it was 27.1 µg/mL (≈ 41 µM).
On to `COc1cc2c(cc1OC)[C@@H](O[C@@H]1O[C@@H]3CO[C@@H](C)O[C@H]3[C@H](O)[C@H]1O)[C@H]1COC(=O)[C@@H]1[C@@H]2c1cc(OC)c(O)c(OC)c1`, for which the values for the T/C in experiment [4], in experiment [5] and in [7] were 189, 228 and 189, respectively. Further, the Ratio in [1] was determined as 6.4. Further, the half-maximal inhibitory concentration (IC50) was 1.61 µg/mL (≈ 2.66 µM) in experiment [2] and 10.3 µg/mL (≈ 17.1 µM) in experiment [3]. The same compound displayed an LTS in [13] of 4.
